{
  "source": "patent US9540336B2",
  "about": "“Therapeutic agents” (priority 2011, dated 2017)",
  "key": {"Bacillus thuringiensis": {"tested_on": "Bacillus thuringiensis", "experiment": "Antimicrobial activity (MIC)", "type": "cell-based"}, "M. smegmatis membranes [1]": {"tested_on": "M. smegmatis membranes", "experiment": "Reduction and reoxidation (redox cycling) with M. smegmatis membranes and NADH", "type": "biochemical"}, "Enterococcus faecalis": {"tested_on": "Enterococcus faecalis", "experiment": "Antimicrobial activity (MIC)", "type": "cell-based"}, "M. smegmatis membranes [2]": {"tested_on": "M. smegmatis membranes", "experiment": "ROS production by M. smegmatis log-phase membranes (Amplex Red/HRP/superoxide dismutase)", "type": "biochemical"}, "E. coli membranes": {"tested_on": "E. coli membranes", "experiment": "Restoration of NADH oxidation and ROS production, E. coli membranes", "type": "biochemical"}, "[3]": {"tested_on": "P. denitrificans membranes", "experiment": "Restoration of NADH oxidation and ROS production, P. denitrificans membranes", "type": "biochemical, Paracoccus denitrificans"}, "[4]": {"experiment": "Solubility in buffered water as a function of pH (centrifugation, spectroscopy)", "type": "physicochemical"}, "M. smegmatis mc2 155": {"tested_on": "M. smegmatis mc2 155", "experiment": "M. smegmatis growth inhibition (colony counts on 7H9 agar)", "type": "cell-based", "settings": "for effect of antioxidants (α-tocopherol, 4-hydroxy-TEMPO, N-acetylcysteine) on growth inhibition: 0.5 μg/ml CFZ or 10 μg/ml INH"}, "[5]": {"biological_target": "recombinant M. tuberculosis NDH-2 (Mycobacterium tuberculosis, UniProt P95160)", "sequence (P95160 whole entry, looked up)": "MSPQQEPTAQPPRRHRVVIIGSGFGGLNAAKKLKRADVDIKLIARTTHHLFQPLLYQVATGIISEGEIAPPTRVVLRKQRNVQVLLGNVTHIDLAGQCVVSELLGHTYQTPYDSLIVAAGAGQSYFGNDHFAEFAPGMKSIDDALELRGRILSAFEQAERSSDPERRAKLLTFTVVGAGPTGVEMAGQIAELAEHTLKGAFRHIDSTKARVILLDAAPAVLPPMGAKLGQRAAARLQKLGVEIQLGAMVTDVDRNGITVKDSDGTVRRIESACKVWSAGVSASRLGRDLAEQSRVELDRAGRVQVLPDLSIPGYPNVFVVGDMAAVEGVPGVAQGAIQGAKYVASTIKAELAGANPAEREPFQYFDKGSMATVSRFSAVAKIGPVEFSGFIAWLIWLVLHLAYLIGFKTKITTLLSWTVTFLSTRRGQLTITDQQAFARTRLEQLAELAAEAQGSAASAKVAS", "type": "biochemical"}, "[6]": {"experiment": "Solubility and cationic/uncharged species in detergents (Triton X-100, Na-lauroyl sarcosine)"}, "rat mitochondria": {"tested_on": "rat mitochondria", "experiment": "Restoration of NADH oxidation, rat mitochondria", "type": "biochemical", "settings": "KCN-inhibited rat mitochondria"}, "M. smegmatis membranes [7]": {"tested_on": "M. smegmatis membranes", "type": "biochemical"}, "S. aureus membranes": {"tested_on": "S. aureus membranes", "experiment": "Restoration of NADH oxidation and ROS production, S. aureus membranes", "type": "biochemical, Staphylococcus aureus"}, "Enterococcus faecium": {"tested_on": "Enterococcus faecium", "experiment": "Antimicrobial activity (MIC)", "type": "cell-based"}, "[8]": {"tested_on": "Staphylococcus aureus MRSA", "experiment": "Antimicrobial activity (MIC)", "type": "cell-based"}, "[9]": {"settings": "cited from earlier work"}, "P. aeruginosa membranes": {"tested_on": "P. aeruginosa membranes", "experiment": "Restoration of NADH oxidation and ROS production, P. aeruginosa membranes", "type": "biochemical, Pseudomonas aeruginosa"}, "[10]": {"tested_on": "submitochondrial membranes from S. cerevisiae", "experiment": "Restoration of NADH oxidation and ROS production, S. cerevisiae submitochondrial membranes", "type": "biochemical"}, "[11]": {"tested_on": "E. faecalis membranes (NDH-2)", "experiment": "E. faecalis membranes: NADH-Q0 reductase activity and ROS production", "type": "biochemical"}},
  "note": "Several values for one entry are separate records, joined by “and”; a condition that tells them apart may be missing. Equal values may be shown once. Entries after “also recorded” stand apart in the source; their conditions may differ.",
  "data": [
    {"smiles": "CC(C)N=c1cc2n(-c3ccc(Cl)cc3)c3ccccc3nc-2cc1Nc1ccc(Cl)cc1", "note": "[CFZ, 3-(4-chloroanilino)-10-(4-chlorophenyl)-2,10-dihydro-2-(isopropylimino)-phenazine]", "values": [
      {"measurement": "MIC", "setting": "Bacillus thuringiensis", "value": 5, "unit": "µM"},
      {"measurement": "observed first order rate constant of reoxidation of reduced CFZ", "setting": "M. smegmatis membranes [1]; 0.5% SDS (final) added", "value": "1.40 ± 0.01", "unit": "min⁻¹"},
      {"measurement": "reduction on NADH addition with membranes", "setting": "M. smegmatis membranes [1]; M. smegmatis membranes, NADH", "value": "marked loss of CFZ absorbance"},
      {"measurement": "observed first (pseudo) order rate constant of reoxidation of reduced CFZ", "setting": "M. smegmatis membranes [1]; after agitation, no SDS", "value": "1.25 ± 0.01", "unit": "min⁻¹"},
      {"measurement": "second order rate constant for reoxidation of reduced CFZ by O2", "setting": "M. smegmatis membranes [1]; assuming 250 μM O2", "value": "~100 M⁻¹ s⁻¹ and 83 M⁻¹ s⁻¹"},
      {"measurement": "MIC", "setting": "Enterococcus faecalis", "value": 10, "unit": "µM"},
      {"measurement": "increase of rate of ROS production over background", "setting": "M. smegmatis membranes [2]; log-phase membranes, NADH, 0.5 μg CFZ", "value": 11.5, "unit": "fold"},
      {"measurement": "ROS (resorufin) production rate relative to rate of NADH consumption / electron transport chain", "setting": "M. smegmatis membranes [2]; maximum, 0.1-0.2 μg CFZ/μg membrane protein, no KCN", "value": "~18", "unit": "%"},
      {"measurement": "CFZ reduction and ROS production with succinate instead of NADH", "setting": "M. smegmatis membranes [2]; succinate as electron donor", "value": "neither CFZ reduction nor ROS production was observed"},
      {"measurement": "ROS production", "setting": "E. coli membranes; E. coli membranes", "value": "did not exhibit significant CFZ-mediated NADH oxidation or ROS production"},
      {"measurement": "restoration of NADH oxidation", "setting": "E. coli membranes; KCN-inhibited E. coli membranes", "value": "did not exhibit significant CFZ-mediated NADH oxidation or ROS production; also recorded: no restoration of NADH oxidation; also recorded: little, if any, restoration of NADH oxidation"},
      {"measurement": "restoration of NADH oxidation", "setting": "[3]; KCN-inhibited P. denitrificans membranes", "value": "did not exhibit significant CFZ-mediated NADH oxidation or ROS production; also recorded: little, if any, restoration of NADH oxidation"},
      {"measurement": "ROS production", "setting": "[3]; P. denitrificans membranes", "value": "did not exhibit significant CFZ-mediated NADH oxidation or ROS production"},
      {"measurement": "fraction of CFZ remaining in solution", "setting": "[4]; 50 mM MOPS/Na+ pH 6.5, 2.0 mM MgCl2, 1.18 μg/ml, 40 min", "value": "~70", "unit": "%"},
      {"measurement": "soluble compound in water", "setting": "[4]; above pH 7.5", "value": "not detectable"},
      {"measurement": "solubility", "setting": "[4]; buffered water (0.1 M buffer), 23 °C, pH 7, aqueous buffer, kinetic from dmso stock, neutral pH, 50 μM added, overnight, centrifuged", "value": "< 2", "unit": "µM"},
      {"measurement": "solubility in water", "setting": "[4]; pH 3.5", "value": "virtually all the drug remained in the supernatant"},
      {"measurement": "soluble compound in water", "setting": "[4]; pH 6.5", "value": "barely detectable"},
      {"measurement": "fraction of CFZ remaining soluble", "setting": "[4]; reaction buffer pH 6.5, 1.2 μg/ml, 40-min incubation", "value": "About two-thirds"},
      {"measurement": "effect of antioxidants (α-tocopherol, 4-hydroxy-TEMPO, N-acetylcysteine) on growth inhibition", "setting": "M. smegmatis mc2 155", "value": "nullified the growth inhibitory activity; also recorded: prevented"},
      {"measurement": "colony formation of M. smegmatis on agar", "setting": "M. smegmatis mc2 155; 0.5 μg/ml CFZ or more, ≧4 days, control 670±100 colonies", "value": "undetectable; also recorded: Virtually no colonies"},
      {"measurement": "ROS generation with purified NDH-2 and NADH", "setting": "[5]", "value": "generation of ROS"},
      {"measurement": "reduction by purified NDH-2", "setting": "[5]; pH 6.5", "value": "purified NDH-2 reduces CFZ"},
      {"measurement": "pKa", "setting": "[6]; buffered Triton X-100 detergent solution", "value": 6.8},
      {"measurement": "solubility", "setting": "[6]; pH 3.5, aqueous with cosolvent or surfactant or cyclodextrin", "value": "≥ 50", "unit": "µM"},
      {"measurement": "solubility", "setting": "[6]; pH 5, aqueous with cosolvent or surfactant or cyclodextrin", "value": "≥ 50", "unit": "µM"},
      {"measurement": "restoration of NADH oxidation", "setting": "rat mitochondria", "value": "little, if any, restoration of NADH oxidation"},
      {"measurement": "CFZ-mediated NADH oxidase rate relative to rate in absence of KCN", "setting": "M. smegmatis membranes [7]", "value": "25-70%"},
      {"measurement": "fraction of NADH oxidase activity restored (maximum)", "setting": "M. smegmatis membranes [7]", "value": "0.25 and 0.40-0.70"},
      {"measurement": "restoration of NADH oxidation", "setting": "M. smegmatis membranes [7]", "value": "restored a significant level of NADH oxidation"},
      {"measurement": "restoration of NADH oxidation", "setting": "S. aureus membranes; KCN-inhibited S. aureus membranes", "value": "significant restoration of NADH oxidation"},
      {"measurement": "ROS production", "setting": "S. aureus membranes; S. aureus membranes", "value": "able to oxidize NADH and generate ROS"},
      {"measurement": "inhibitory effect of high levels on mediated NADH oxidation", "setting": "S. aureus membranes; S. aureus membranes", "value": "inhibitory"},
      {"measurement": "MIC", "setting": "Enterococcus faecium", "value": 10, "unit": "µM"},
      {"measurement": "MIC", "setting": "[8]", "value": 2.5, "unit": "µM"},
      {"measurement": "redox potential Em, cationic species", "setting": "[9]; Kovacic et al. 1989", "value": "−180", "unit": "mV"},
      {"measurement": "redox potential Em, uncharged species", "setting": "[9]; Kovacic et al. 1989", "value": "−950", "unit": "mV"},
      {"measurement": "pKa (commonly quoted)", "setting": "[9]; unclear origin", "value": 8.5},
      {"measurement": "restoration of NADH oxidation", "setting": "P. aeruginosa membranes; KCN-inhibited P. aeruginosa membranes", "value": "did not exhibit significant CFZ-mediated NADH oxidation or ROS production; also recorded: little, if any, restoration of NADH oxidation"},
      {"measurement": "ROS production", "setting": "P. aeruginosa membranes; P. aeruginosa membranes", "value": "did not exhibit significant CFZ-mediated NADH oxidation or ROS production"},
      {"measurement": "restoration of NADH oxidation", "setting": "[10]; KCN-inhibited S. cerevisiae submitochondrial membranes", "value": "significant restoration of NADH oxidation"},
      {"measurement": "ROS production", "setting": "[10]; S. cerevisiae submitochondrial particles", "value": "able to oxidize NADH and generate ROS"}
    ]},
    {"smiles": "CN1CCN(CCCN2c3ccccc3Sc3ccc(C(F)(F)F)cc32)CC1", "note": "[TPZ, trifluoperazine]", "values": [
      {"measurement": "effect on CFZ-mediated ROS production", "setting": "M. smegmatis membranes [2]; TPZ 0.2 mM", "value": "sensitive to TPZ"},
      {"measurement": "effect on ROS formation by purified NDH-2 with CFZ", "setting": "[5]", "value": "inhibited"},
      {"measurement": "inhibition of NADH oxidase activity", "setting": "M. smegmatis membranes [7]", "value": "inhibited CFZ-mediated NADH oxidase activity"}
    ]},
    {"smiles": "NNC(=O)c1ccncc1", "note": "[INH, isoniazid]", "values": [
      {"measurement": "effect of antioxidants (α-tocopherol, 4-hydroxy-TEMPO, N-acetylcysteine) on growth inhibition", "setting": "M. smegmatis mc2 155", "value": "not altered; also recorded: not sensitive to antioxidants"},
      {"measurement": "M. smegmatis growth", "setting": "M. smegmatis mc2 155; 10 μg/ml", "value": "completely inhibited"}
    ]},
    {"smiles": "CN(C)CCCN1c2ccccc2Sc2ccc(Cl)cc21", "note": "[CPZ, chlorpromazin]", "values": [
      {"measurement": "effect on NADH-Q0 reductase activity (NADH oxidation)", "setting": "[11]; 400 μM CPZ, 0.2 mM NADH, 2 mM Q0", "value": "completely ceased"},
      {"measurement": "inhibition of KS6-mediated ROS production", "setting": "[11]; E. faecalis membranes", "value": "complete inhibition"}
    ]}
  ]
}
